In US20260028365A1 (BIOGEN MA INC., priority 2022, published 2026):

Tests used:
JH2 domain of human Tyk2 = JH2 domain of human Tyk2 (Homo sapiens (Human), UniProt P29597); assay: JH2 Biochemical Assay (TR-FRET probe displacement); assay type: binding; conditions: TR-FRET probe displacement, JH2 domain of human Tyk2
Tyk2 = Tyk2 (Homo sapiens (Human), UniProt P29597); assay: pSTAT4 Cell Assay (MSD, NK92 cells); assay type: cell-based; conditions: MSD
Sequence of Tyk2 (P29597 whole entry): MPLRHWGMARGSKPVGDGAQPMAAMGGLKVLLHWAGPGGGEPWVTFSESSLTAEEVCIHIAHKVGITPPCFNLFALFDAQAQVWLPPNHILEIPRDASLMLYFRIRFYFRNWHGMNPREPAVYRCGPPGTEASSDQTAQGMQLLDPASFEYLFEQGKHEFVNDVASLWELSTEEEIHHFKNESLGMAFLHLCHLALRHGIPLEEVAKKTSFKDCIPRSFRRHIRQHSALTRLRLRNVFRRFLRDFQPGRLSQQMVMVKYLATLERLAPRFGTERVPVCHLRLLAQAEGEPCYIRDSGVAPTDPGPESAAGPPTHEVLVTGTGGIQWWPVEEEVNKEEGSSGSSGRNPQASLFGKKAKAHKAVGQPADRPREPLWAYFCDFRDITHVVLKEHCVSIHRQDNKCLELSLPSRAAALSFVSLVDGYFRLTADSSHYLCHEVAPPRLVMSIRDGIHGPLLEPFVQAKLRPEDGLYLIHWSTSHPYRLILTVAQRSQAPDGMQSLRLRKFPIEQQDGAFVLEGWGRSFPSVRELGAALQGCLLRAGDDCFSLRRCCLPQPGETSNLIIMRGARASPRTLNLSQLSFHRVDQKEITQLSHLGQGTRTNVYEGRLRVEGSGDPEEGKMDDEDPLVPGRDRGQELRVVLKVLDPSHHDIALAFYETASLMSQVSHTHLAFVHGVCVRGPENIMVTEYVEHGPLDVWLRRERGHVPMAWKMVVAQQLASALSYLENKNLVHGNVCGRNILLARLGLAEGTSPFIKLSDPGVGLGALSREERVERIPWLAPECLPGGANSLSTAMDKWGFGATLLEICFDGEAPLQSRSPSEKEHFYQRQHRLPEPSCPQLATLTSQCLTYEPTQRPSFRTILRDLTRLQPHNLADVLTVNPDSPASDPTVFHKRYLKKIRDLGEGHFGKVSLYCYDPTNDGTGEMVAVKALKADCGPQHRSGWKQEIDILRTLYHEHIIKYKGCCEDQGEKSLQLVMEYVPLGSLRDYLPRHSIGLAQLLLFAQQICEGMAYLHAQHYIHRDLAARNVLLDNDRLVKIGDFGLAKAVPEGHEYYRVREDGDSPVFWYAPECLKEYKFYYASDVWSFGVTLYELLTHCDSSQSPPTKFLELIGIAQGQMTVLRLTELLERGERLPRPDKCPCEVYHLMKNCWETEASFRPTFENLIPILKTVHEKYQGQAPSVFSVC

Sequence of JH2 domain of human Tyk2 (P29597 575-876): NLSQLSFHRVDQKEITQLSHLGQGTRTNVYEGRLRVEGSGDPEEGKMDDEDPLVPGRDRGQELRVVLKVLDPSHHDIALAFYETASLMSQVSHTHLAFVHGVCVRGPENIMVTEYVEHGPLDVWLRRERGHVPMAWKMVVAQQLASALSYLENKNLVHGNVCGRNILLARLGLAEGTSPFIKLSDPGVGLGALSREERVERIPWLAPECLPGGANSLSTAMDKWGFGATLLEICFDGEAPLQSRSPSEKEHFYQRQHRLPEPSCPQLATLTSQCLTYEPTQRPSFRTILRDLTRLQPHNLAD

| Compound | IC50 (JH2 domain of human Tyk2) | IC50 (Tyk2) |
| --- | --- | --- |
| CC(=O)Nc1cc(Nc2cc(C)nc(C(C)(C)F)n2)c(-c2ccnc(C)n2)cn1 [Example 176, N-(4-((2-(2-fluoropropan-2-yl)-6-methylpyrimidin-4-yl)amino)-5-(2-methylpyrimidin-4-yl)pyridin-2-yl)acetamide] | ≤ 0.01 µM | ≤ 0.01 µM |
| COc1nccc(-c2cnc(NC(C)=O)cc2Nc2cccc(C(C)(F)F)n2)n1 [Example 177, N-(4-((6-(1,1-difluoroethyl)pyridin-2-yl)amino)-5-(2-methoxypyrimidin-4-yl)pyridin-2-yl)acetamide] | ≤ 0.01 µM | ≤ 0.01 µM |
| COc1nccc(-c2cnc(NC(C)=O)cc2Nc2ccnc(C(C)(F)F)n2)n1 [Example 178, N-(4-((2-(1,1-difluoroethyl)pyrimidin-4-yl)amino)-5-(2-methoxypyrimidin-4-yl)pyridin-2-yl)acetamide] | ≤ 0.01 µM | ≤ 0.01 µM |
| COc1nccc(-c2cnc(NC(C)=O)cc2Nc2cc(C)nc(C(C)(F)F)n2)n1 [Example 179, N-(4-((2-(1,1-difluoroethyl)-6-methylpyrimidin-4-yl)amino)-5-(2-methoxypyrimidin-4-yl)pyridin-2-yl)acetamide] | ≤ 0.01 µM | ≤ 0.01 µM |
| COc1nccc(-c2cnc(NC(C)=O)cc2Nc2ccnc(C(C)(C)F)n2)n1 [Example 180, N-(4-((2-(2-fluoropropan-2-yl)pyrimidin-4-yl)amino)-5-(2-methoxypyrimidin-4-yl)pyridin-2-yl)acetamide] | ≤ 0.01 µM | ≤ 0.01 µM |
| COc1nccc(-c2cnc(NC(C)=O)cc2Nc2cc(C)nc(C(C)(C)F)n2)n1 [Example 181, N-(4-((2-(2-fluoropropan-2-yl)-6-methylpyrimidin-4-yl)amino)-5-(2-methoxypyrimidin-4-yl)pyridin-2-yl)acetamide] | ≤ 0.01 µM | ≤ 0.01 µM |
| CCc1cc(Nc2cc(NC(C)=O)ncc2-c2ncc(F)cn2)nc(C(C)(F)F)n1 [Example 183, N-(4-((2-(1,1-difluoroethyl)-6-ethylpyrimidin-4-yl)amino)-5-(5-fluoropyrimidin-2-yl)pyridin-2-yl)acetamide] | ≤ 0.01 µM | 0.01 to 0.1 µM |
| CC(=O)Nc1cc(Nc2cc(C(C)C)nc(C(C)(F)F)n2)c(-c2ncc(F)cn2)cn1 [Example 184, N-(4-((2-(1,1-difluoroethyl)-6-isopropylpyrimidin-4-yl)amino)-5-(5-fluoropyrimidin-2-yl)pyridin-2-yl)acetamide] | ≤ 0.01 µM | 0.01 to 0.1 µM |
| CC(=O)Nc1cc(Nc2cccc(C(C)(F)F)n2)c(-c2ncc(F)cn2)cn1 [Example 186, N-(4-((6-(1,1-difluoroethyl)pyridin-2-yl)amino)-5-(5-fluoropyrimidin-2-yl)pyridin-2-yl)acetamide] | ≤ 0.01 µM | 0.01 to 0.1 µM |
| CC(=O)Nc1cc(Nc2ccnc(C(C)(F)F)c2)c(-c2ncc(F)cn2)cn1 [Example 187, N-(4-((2-(1,1-difluoroethyl)pyridin-4-yl)amino)-5-(5-fluoropyrimidin-2-yl)pyridin-2-yl)acetamide] | 0.01 to 0.1 µM | ≥ 1 µM |
| CC(=O)Nc1cc(Nc2cncc(C(C)(F)F)n2)c(-c2ncc(F)cn2)cn1 [Example 188, N-(4-((6-(1,1-difluoroethyl)pyrazin-2-yl)amino)-5-(5-fluoropyrimidin-2-yl)pyridin-2-yl)acetamide] | ≤ 0.01 µM | 0.01 to 0.1 µM |
| CC(=O)Nc1cc(Nc2cncc(C(C)(C)F)n2)c(-c2ncc(F)cn2)cn1 [Example 189, N-(4-((6-(2-fluoropropan-2-yl)pyrazin-2-yl)amino)-5-(5-fluoropyrimidin-2-yl)pyridin-2-yl)acetamide] | 0.01 to 0.1 µM | 0.01 to 0.1 µM |
| CC(=O)Nc1cc(Nc2cc(C)cc(C(C)(F)F)n2)c(-c2ncc(F)cn2)cn1 [Example 190, N-(4-((6-(1,1-difluoroethyl)-4-methylpyridin-2-yl)amino)-5-(5-fluoropyrimidin-2-yl)pyridin-2-yl)acetamide] | ≤ 0.01 µM | 0.01 to 0.1 µM |
| COc1cc(Nc2cc(NC(C)=O)ncc2-c2ncc(F)cn2)nc(C(C)(F)F)c1 [Example 191, N-(4-((6-(1,1-difluoroethyl)-4-methoxypyridin-2-yl)amino)-5-(5-fluoropyrimidin-2-yl)pyridin-2-yl)acetamide] | ≤ 0.01 µM | 0.01 to 0.1 µM |
| COc1cc(Nc2cc(NC(C)=O)ncc2-c2ncc(F)cn2)nc(C(C)(F)F)n1 [Example 192, N-(4-((2-(1,1-difluoroethyl)-6-methoxypyrimidin-4-yl)amino)-5-(5-fluoropyrimidin-2-yl)pyridin-2-yl)acetamide] | ≤ 0.01 µM | 0.01 to 0.1 µM |
| COc1cc(-c2cnc(NC(C)=O)cc2Nc2ccnc(C(C)(F)F)n2)ncn1 [Example 193, N-(4-((2-(1,1-difluoroethyl)pyrimidin-4-yl)amino)-5-(6-methoxypyrimidin-4-yl)pyridin-2-yl)acetamide] | ≤ 0.01 µM | 0.01 to 0.1 µM |
| COc1cc(-c2cnc(NC(C)=O)cc2Nc2cc(C)nc(C(C)(F)F)n2)ncn1 [Example 194, N-(4-((2-(1,1-difluoroethyl)-6-methylpyrimidin-4-yl)amino)-5-(6-methoxypyrimidin-4-yl)pyridin-2-yl)acetamide] | ≤ 0.01 µM | ≤ 0.01 µM |
| COc1cc(-c2cnc(NC(C)=O)cc2Nc2cc(C)nc(C(C)(C)F)n2)ncn1 [Example 196, N-(4-((2-(2-fluoropropan-2-yl)-6-methylpyrimidin-4-yl)amino)-5-(6-methoxypyrimidin-4-yl)pyridin-2-yl)acetamide] | ≤ 0.01 µM | 0.01 to 0.1 µM |
| CC(=O)Nc1cc(Nc2cc(C)nc(C(C)(F)F)n2)c(-c2cc(C)ncn2)cn1 [Example 197, N-(4-((2-(1,1-difluoroethyl)-6-methylpyrimidin-4-yl)amino)-5-(6-methylpyrimidin-4-yl)pyridin-2-yl)acetamide] | ≤ 0.01 µM | ≤ 0.01 µM |
| CC(=O)Nc1cc(Nc2ccnc(C(C)(C)F)n2)c(-c2cc(C)ncn2)cn1 [Example 198, N-(4-((2-(2-fluoropropan-2-yl)pyrimidin-4-yl)amino)-5-(6-methylpyrimidin-4-yl)pyridin-2-yl)acetamide] | ≤ 0.01 µM | 0.01 to 0.1 µM |
| CC(=O)Nc1cc(Nc2ccnc(C(C)(F)F)n2)c(-c2ccn(C)n2)cn1 [Example 202, N-(4-((2-(1,1-difluoroethyl)pyrimidin-4-yl)amino)-5-(1-methyl-1H-pyrazol-3-yl)pyridin-2-yl)acetamide] | ≤ 0.01 µM | ≤ 0.01 µM |
| CC(=O)Nc1cc(Nc2nccc(C(C)(F)F)n2)c(-c2ccn(C)n2)cn1 [Example 203, N-(4-((4-(1,1-difluoroethyl)pyrimidin-2-yl)amino)-5-(1-methyl-1H-pyrazol-3-yl)pyridin-2-yl)acetamide] | ≤ 0.01 µM | ≤ 0.01 µM |
| CCc1cc(Nc2cc(NC(C)=O)ncc2-c2ccn(C)n2)nc(C(C)(F)F)n1 [Example 204, N-(4-((2-(1,1-difluoroethyl)-6-ethylpyrimidin-4-yl)amino)-5-(1-methyl-1H-pyrazol-3-yl)pyridin-2-yl)acetamide] | ≤ 0.01 µM | ≤ 0.01 µM |
| CC(=O)Nc1cc(Nc2cc(C3CC3)nc(C(C)(F)F)n2)c(-c2ccn(C)n2)cn1 [Example 206, N-(4-((6-cyclopropyl-2-(1,1-difluoroethyl)pyrimidin-4-yl)amino)-5-(1-methyl-1H-pyrazol-3-yl)pyridin-2-yl)acetamide] | ≤ 0.01 µM | ≤ 0.01 µM |
